Experimental data from patent publication US8785436B2, “1,3-oxazines as BACE 1 and/or BACE2 inhibitors” (Hoffmann-La Roche Inc., priority 2011, dated 2014).
Counter-ions that a name gives are not always drawn.

Target: T1, BACE1 (Homo sapiens, UniProt P56817)
T1 construct: Human HEK293 cells which are stably transfected with a vector expressing a cDNA of the human APP wt gene (APP695); endogenous in cells; host or cells: HEK293 cells stably expressing human APP695 wt
Assay: Cellular Aβ-lowering assay a) (Aβ40 ELISA, HEK293 APP cells)
Type: cell-based
Conditions: cellular assay a): HEK293 APP695 cells, 18-20 hrs incubation, read-out: BACE1 cell act. Aβ40 IC50
Method: Cellular Aβ-Lowering Assay:
a) Human HEK293 cells which are stably transfected with a vector expressing a cDNA of the human APP wt gene (APP695) were used to assess the potency of the compounds in a cellular assay. The cells were seeded in 96-well microtiter plates in cell culture medium (Iscove, plus 10% (v/v) fetal bovine serum, glutamine, penicillin/streptomycin) to about 80% confluence and the compounds were added at a 10× concentration in 1/10 volume of medium without FCS containing 8% DMSO (final concentration of DMSO was kept at 0.8% v/v). After 18-20 hrs incubation at 37° C. and 5% CO2 in a humidified incubator the culture supernatant was harvested for the determination of Aβ40 concentrations. 96 well ELISA plates (e.g., Nunc MaxiSorb) were coated with monoclonal antibody which specifically recognize the C-terminal end of Aβ40 (Brockhaus et al., NeuroReport 9, 1481-1486; 1998). After blocking of non-specific binding sites with e.g. 1% BSA and washing, the culture supernatants were added in suitable dilutions together with a horseradish peroxidase-coupled Aβ detection antibody (e.g., antibody 4G8, Senetek, Maryland Heights, Mo.) and incubated for 5 to 7 hrs. Subsequently the wells of the microtiter plate were washed extensively with Tris-buffered saline containing 0.05% Tween 20 and the assay was developed with tetramethylbenzidine/H2O2 in citric acid buffer. After stopping the reaction with one volume 1 NH2SO4 the reaction was measured in an ELISA reader at 450 nm wavelength. The concentrations of Aβ in the culture supernatants were calculated from a standard curve obtained with known amounts of pure Aβ peptide.

T1 sequence (P56817 46-501): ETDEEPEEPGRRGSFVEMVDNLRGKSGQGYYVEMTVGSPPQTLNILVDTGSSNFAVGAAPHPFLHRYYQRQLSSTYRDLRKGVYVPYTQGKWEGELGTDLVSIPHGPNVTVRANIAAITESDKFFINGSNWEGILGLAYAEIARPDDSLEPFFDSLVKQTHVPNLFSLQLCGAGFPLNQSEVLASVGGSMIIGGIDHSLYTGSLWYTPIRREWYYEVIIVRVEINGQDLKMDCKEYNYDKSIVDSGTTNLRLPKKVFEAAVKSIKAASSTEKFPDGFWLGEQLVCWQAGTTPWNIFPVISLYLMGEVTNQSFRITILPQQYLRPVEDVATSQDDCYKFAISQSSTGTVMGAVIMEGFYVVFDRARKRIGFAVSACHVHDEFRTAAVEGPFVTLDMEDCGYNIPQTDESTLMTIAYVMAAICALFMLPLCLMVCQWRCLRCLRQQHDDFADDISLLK

Row | IC50 | Compound
1 | 430 nM | Cc1cc(C(C)Nc2ccc(F)c([C@@]3(C)N=C(N)OCC3(F)F)c2)[nH]n1 (mixture of isomers) [Example 17, (R)-5,5-Difluoro-4-{2-fluoro-5-[(RS)-1-(5-methyl-2H-pyrazol-3-yl)-ethylamino]-phenyl}-4-methyl-5,6-dihydro-4H-[1,3]oxazin-2-ylamine]
2 | 1230 nM | CC(Nc1ccc(F)c([C@@]2(C)N=C(N)OCC2(F)F)c1)c1nn(C)cc1Cl (mixture of isomers) [Example 18, (R)-4-{5-[(RS)-1-(4-Chloro-1-methyl-1H-pyrazol-3-yl)-ethylamino]-2-fluoro-phenyl}-5,5-difluoro-4-methyl-5,6-dihydro-4H-[1,3]oxazin-2-ylamine]
3 | 1800 nM | CC(Nc1ccc(F)c([C@@]2(C)N=C(N)OCC2(F)F)c1)c1nn(CC(F)F)cc1Cl (mixture of isomers) [Example 19, (R)-4-(5-{(RS)-1-[4-Chloro-1-(2,2-difluoro-ethyl)-1H-pyrazol-3-yl]-ethylamino}-2-fluoro-phenyl)-5,5-difluoro-4-methyl-5,6-dihydro-4H-[1,3]oxazin-2-ylamine]
4 | 2000 nM | CC(Nc1ccc(F)c([C@@]2(C)N=C(N)OCC2(F)F)c1)c1cc(C2CC2)on1 (mixture of isomers) [Example 20, (R)-4-{5-[(RS)-1-(5-Cyclopropyl-isoxazol-3-yl)-ethylamino]-2-fluoro-phenyl}-5,5-difluoro-4-methyl-5,6-dihydro-4H-[1,3]oxazin-2-ylamine]
5 | 400 nM | C[C@]1(c2cc(NC3CCOC3)ccc2F)N=C(N)OCC1(F)F (mixture of isomers) [Example 26, (R)-5,5-Difluoro-4-{2-fluoro-5-[(RS)-(tetrahydro-furan-3-yl)amino]-phenyl}-4-methyl-5,6-dihydro-4H-[1,3]oxazin-2-ylamine]
6 | 460 nM | C[C@]1(c2cc(NC3CCCc4cc(C#N)cnc43)ccc2F)N=C(N)OCC1(F)F (mixture of isomers) [Example 27, (RS)-8-[3-((R)-2-Amino-5,5-difluoro-4-methyl-5,6-dihydro-4H-[1,3]oxazin-4-yl)-4-fluoro-phenylamino]-5,6,7,8-tetrahydro-quinoline-3-carbonitrile]
7 | 1630 nM | C[C@]1(c2cc(NC3CS(=O)(=O)c4ccccc43)ccc2F)N=C(N)OCC1(F)F (mixture of isomers) [Example 28, (R)-4-[5-((RS)-1,1-Dioxo-2,3-dihydro-1H-1λ6-benzo[b]thiophen-3-ylamino)-2-fluoro-phenyl]-5,5-difluoro-4-methyl-5,6-dihydro-4H-[1,3]oxazin-2-ylamine]
8 | 2160 nM | C[C@]1(c2cc(NCC3CCOC3)ccc2F)N=C(N)OCC1(F)F (mixture of isomers) [Example 30, (R)-5,5-Difluoro-4-{2-fluoro-5-{[(RS)-1-(tetrahydro-furan-3-yl)methyl]-amino}-phenyl}-4-methyl-5,6-dihydro-4H-[1,3]oxazin-2-ylamine]
9 | 5460 nM | C[C@]1(c2cc3c(cc2F)OCC(c2ccc(Cl)cn2)N3)N=C(N)OCC1(F)F (mixture of isomers) [Example 38, (R)-4-[(RS)-3-(5-Chloro-pyridin-2-yl)-7-fluoro-3,4-dihydro-2H-benzo[1,4]oxazin-6-yl]-5,5-difluoro-4-methyl-5,6-dihydro-4H-[1,3]oxazin-2-ylamine]
10 | 340 nM | C[C@@]1(c2cc(NC3CCCC3)ccc2F)CCOC(N)=N1 [Example 2, (S)-4-(5-Cyclopentylamino-2-fluoro-phenyl)-4-methyl-5,6-dihydro-4H-[1,3]oxazin-2-ylamine]
11 | 660 nM | C[C@]1(c2cc(NCc3ccsc3)ccc2F)N=C(N)OC[C@@H]1F [Example 6, (4R,5R)-5-Fluoro-4-{2-fluoro-5-[(thiophen-3-ylmethyl)-amino]-phenyl}-4-methyl-5,6-dihydro-4H-[1,3]oxazin-2-ylamine]
12 | 190 nM | C[C@]1(c2cc(-c3cncc(C#N)c3)ccc2F)N=C(N)OC[C@@H]1F [Example 9, 5-[3-((4R,5R)-2-Amino-5-fluoro-4-methyl-5,6-dihydro-4H-[1,3]oxazin-4-yl)-4-fluoro-phenyl]-nicotinonitrile]
13 | 360 nM | C[C@]1(c2cc(-c3cnn(-c4ccc(F)cc4)c3)ccc2F)N=C(N)OC[C@@H]1F [Example 10, (4R,5R)-5-Fluoro-4-{2-fluoro-5-[1-(4-fluoro-phenyl)-1H-pyrazol-4-yl]-phenyl}-4-methyl-5,6-dihydro-4H-[1,3]oxazin-2-ylamine Hydrochloride]
14 | 1300 nM | Cc1cnn(-c2ccc(F)c([C@@]3(C)N=C(N)OC[C@@H]3F)c2)c1 [Example 11, (4R,5R)-5-Fluoro-4-[2-fluoro-5-(4-methyl-pyrazol-1-yl)-phenyl]-4-methyl-5,6-dihydro-4H-[1,3]oxazin-2-ylamine]
15 | 300 nM | CC1(CNc2ccc(F)c([C@@]3(C)N=C(N)OCC3(F)F)c2)COC1 [Example 24, (R)-5,5-Difluoro-4-{2-fluoro-5-[(3-methyl-oxetan-3-ylmethyl)-amino]-phenyl}-4-methyl-5,6-dihydro-4H-[1,3]oxazin-2-ylamine]
16 | 1960 nM | C[C@]1(c2cc(NC3COC3)ccc2F)N=C(N)OCC1(F)F [Example 29, (R)-5,5-Difluoro-4-[2-fluoro-5-(oxetan-3-ylamino)-phenyl]-4-methyl-5,6-dihydro-4H-[1,3]oxazin-2-ylamine]
17 | 8440 nM | C[C@]1(c2cc(-c3cnn(-c4ccc(F)cc4)c3)ccc2F)N=C(N)OCC1(F)F [Example 31, (R)-5,5-Difluoro-4-{2-fluoro-5-[1-(4-fluoro-phenyl)-1H-pyrazol-4-yl]-phenyl}-4-methyl-5,6-dihydro-4H-[1,3]oxazin-2-ylamine]
18 | 1400 nM | C[C@]1(c2cccc(OCc3ccc(C#N)cc3)c2)N=C(N)OCC1(F)F [Example 34, 4-[3-((R)-2-Amino-5,5-difluoro-4-methyl-5,6-dihydro-4H-[1,3]oxazin-4-yl)-phenoxymethyl]-benzonitrile]
19 | 4000 nM | C[C@]1(c2cccc(OCc3ccc(Cl)cc3)c2)N=C(N)OCC1(F)F [Example 35, (R)-4-[3-(4-Chloro-benzyloxy)-phenyl]-5,5-difluoro-4-methyl-5,6-dihydro-4H-[1,3]oxazin-2-ylamine]
20 | 7740 nM | C[C@]1(c2cccc(OCc3ccc(C(F)(F)F)cc3)c2)N=C(N)OCC1(F)F [Example 36, (R)-5,5-Difluoro-4-methyl-4-[3-(4-trifluoromethyl-benzyloxy)-phenyl]-5,6-dihydro-4H-[1,3]oxazin-2-ylamine]
21 | 300 nM | Cc1ccc(Cc2nc3ccc([C@@]4(C)N=C(N)OCC4(F)F)cc3[nH]2)cc1 [Example 37, (R)-5,5-Difluoro-4-methyl-4-[2-(4-methyl-benzyl)-3H-benzoimidazol-5-yl]-5,6-dihydro-4H-[1,3]oxazin-2-ylamine]
22 | 5670 nM | COc1ccc(Cc2cc3cc(F)c([C@@]4(C)N=C(N)OCC4(F)F)cc3[nH]2)cc1 [Example 39, (R)-5,5-Difluoro-4-[5-fluoro-2-(4-methoxy-benzyl)-1H-indol-6-yl]-4-methyl-5,6-dihydro-4H-[1,3]oxazin-2-ylamine]
23 | 6620 nM | C#CCNC(=O)c1ccc(F)c([C@@]2(C)N=C(N)OCC2(F)F)c1 [Example 41, 3-((R)-2-Amino-5,5-difluoro-4-methyl-5,6-dihydro-4H-[1,3]oxazin-4-yl)-4-fluoro-N-prop-2-ynyl-benzamide]
24 | 1470 nM | CC1(C)OC(N)=N[C@](C)(c2cc(Nc3ccccc3Cl)ccc2F)C1(F)F [Example 42, (R)-4-[5-(2-Chloro-phenylamino)-2-fluoro-phenyl]-5,5-difluoro-4,6,6-trimethyl-5,6-dihydro-4H-[1,3]oxazin-2-ylamine]
25 | 2920 nM | Cc1ccccc1Nc1ccc(F)c([C@@]2(C)N=C(N)OC(C)(C)C2(F)F)c1 [Example 45, (R)-5,5-Difluoro-4-(2-fluoro-5-o-tolylamino-phenyl)-4,6,6-trimethyl-5,6-dihydro-4H-[1,3]oxazin-2-ylamine]
26 | 6920 nM | CC1(C)OC(N)=N[C@](C)(c2cc(Nc3ccccc3C(F)(F)F)ccc2F)C1(F)F [Example 46, (R)-5,5-Difluoro-4-[2-fluoro-5-(2-trifluoromethyl-phenylamino)-phenyl]-4,6,6-trimethyl-5,6-dihydro-4H-[1,3]oxazin-2-ylamine]
27 | 9080 nM | CC1(C)OC(N)=N[C@](C)(c2cc(-c3cncc(Cl)c3)ccc2F)C1(F)F [Example 50, (R)-4-[5-(5-Chloro-pyridin-3-yl)-2-fluoro-phenyl]-5,5-difluoro-4,6,6-trimethyl-5,6-dihydro-4H-[1,3]oxazin-2-ylamine Hydrochloride]
